Experiments:
FLT3-ITD = target: T1, FLT3-ITD (Homo sapiens, UniProt P36888); experiment: AlphaScreen kinase assay with recombinant enzyme, FLT3-ITD; type: biochemical; details: 8pt; read-out: FLT3_ITD 8pt: IC50
T1 sequence (P36888 1-993): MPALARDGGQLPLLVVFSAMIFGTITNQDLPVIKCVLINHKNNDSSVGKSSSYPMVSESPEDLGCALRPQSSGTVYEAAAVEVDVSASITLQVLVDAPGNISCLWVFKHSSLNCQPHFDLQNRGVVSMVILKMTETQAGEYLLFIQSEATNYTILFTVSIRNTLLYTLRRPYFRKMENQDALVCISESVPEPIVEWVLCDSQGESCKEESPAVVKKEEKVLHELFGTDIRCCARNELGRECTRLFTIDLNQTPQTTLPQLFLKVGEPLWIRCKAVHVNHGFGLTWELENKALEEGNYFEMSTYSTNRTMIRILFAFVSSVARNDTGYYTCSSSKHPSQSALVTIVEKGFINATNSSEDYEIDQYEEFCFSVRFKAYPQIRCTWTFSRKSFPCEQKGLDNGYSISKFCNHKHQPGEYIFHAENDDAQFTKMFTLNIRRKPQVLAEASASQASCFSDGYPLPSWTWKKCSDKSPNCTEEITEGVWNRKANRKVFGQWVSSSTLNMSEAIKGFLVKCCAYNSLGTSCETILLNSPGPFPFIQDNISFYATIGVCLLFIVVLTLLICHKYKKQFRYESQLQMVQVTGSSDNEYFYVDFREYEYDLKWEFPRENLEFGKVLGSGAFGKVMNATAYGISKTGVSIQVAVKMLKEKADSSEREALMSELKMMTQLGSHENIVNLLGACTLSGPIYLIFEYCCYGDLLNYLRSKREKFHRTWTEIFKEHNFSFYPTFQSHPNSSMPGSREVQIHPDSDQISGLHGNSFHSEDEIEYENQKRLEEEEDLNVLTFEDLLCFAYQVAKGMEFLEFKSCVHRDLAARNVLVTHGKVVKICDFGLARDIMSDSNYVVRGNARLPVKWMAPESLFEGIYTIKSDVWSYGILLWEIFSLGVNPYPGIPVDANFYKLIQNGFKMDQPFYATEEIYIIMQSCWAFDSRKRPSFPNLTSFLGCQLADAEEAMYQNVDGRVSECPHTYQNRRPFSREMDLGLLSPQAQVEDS
Method: In order to determine the effect of compounds on FLT3 catalytic activity, kinase assays using recombinant enzymes and AlphaScreen® technology have been established. The catalytic activity of c-kit activity was also measured to determine selectivity of the compounds. When the kinases are catalytically active, they phosphorylate a biotinylated peptide substrate on tyrosine residues. Using AlphaScreen® technology, the ability of the compounds to affect the catalytic activity of the kinases can be measured quantitatively. The peptide substrate is immobilized by the AlphaScreen® Streptavidin Donor beads and, upon phosphorylation by a tyrosine kinase, can bind to AlphaScreen® Anti-Phosphotyrosine (PY20) Acceptor beads. Upon excitation of these beads with laser light at 680 nm, singlet oxygen is produced. This singlet oxygen is rapidly quenched, unless the AlphaScreen® Anti-Phosphotyrosine (PY20) Acceptor beads are in close proximity, in which case a proximity signal can be measured at 580 nm. In the presence of catalytic activity, there is a very strong proximity signal. Selective kinase inhibitors affect a decrease in this proximity signal through a decrease in tyrosine phosphorylation of the peptide substrate.
The assay was performed as summarized below.
Poly (Glu4-Tyr) Peptide, biotin conjugate [Biotin-GG(EEEEY)10EE] (SEQ ID NO: 4)
Final concentration=30 nM
Final concentration for IC50 determination=10 μM (FLT3-D835Y or FLT3-ITD) or 100 μM (c-KIT)
AlphaScreen® Phosphotyrosine (PY20) Assay Kit
Final concentration=10 μg/mL
Dilute compounds in DMSO to 20× final concentration.
Add 1 μl of compound to each well of 384 well reaction plate (Perkin Elmer #6005359).
Mix enzyme and Poly (Glu4-Tyr) Peptide substrate at 1.33× final concentration in assay buffer.
Mix ATP at 5× final concentration in assay buffer.
Add 15 μL enzyme/substrate mixture to the reaction plate.
Add 4 μL of ATP to the reaction plate.
Mix Streptavidin Donor beads at 6× final concentration in Stop/Detection buffer.
Add 5 μL Streptavidin Donor beads to the reaction plate. Centrifuge 1 minute, shake to mix, and incubate at room temperature for 20 minutes.
Mix Anti-Phosphotyrosine (PY20) Acceptor beads at 6× final concentration in Stop/Detection buffer.
Add 5 μL Anti-Phosphotyrosine (PY20) beads to the reaction plate.
Centrifuge 1 minute, shake to mix, and incubate at room temperature for 60 minutes.
Read plate on Wallac EnVision™ 2103 Multilabel Reader.

[1] = system: MOLM-14 D835Y cells, FLT3 ITD and FLT3 D835Y; experiment: Cell proliferation assay (CellTiter-Glo), MOLM-14 D835Y; type: cell-based; details: Homo sapiens, 72 h, 3d-Growth, GMean
From the text: The FLT3 inhibitors may be assessed using the MOLM-14, Acute Myeloid Leukemia cell line that endogenously expresses FLT3 ITD or derivatives of the human FLT3 AML cell line which acquired the D835Y (activation loop) of F691L (gatekeeper) mutation after selection in escalating doses of the FLT3 Inhibitor AC220. FLT3 inhibitors may also be assessed using cells that are engineered to express mutant FLT3. For engineered cells, murine Ba/F3 cells were transfected with full-length FLT3 ITD/D835Y mutations. The parental BA/F3 cells are dependent upon Interleukin-3 (IL-3) for survival, and introduction of the FLT3 constructs rendered these cells dependent upon FLT3 kinase activity when cultured in the absences of IL-3. Engineered BA/F3 cell growth assays can be performed in either the […] of IL-3, to assess the compound inhibition of FLT3 or to detect the presence of off-target activity, respectively. Inhibitors of FLT3 kinase activity reduce or eliminate the FLT3 oncogenic signaling, resulting in reduced cell proliferation. This inhibition is measured as a function of compound concentration to asses IC50 values.
Cell lines used in proliferation assays are as follows in Table 3:
Cells were seeded at 1×10^4 cells per well of a 96 well cell culture plate in 50 μl of cell culture medium. Compounds were dissolved in DMSO, typically at a concentration of 0.5 mM and were serially diluted 1:3 for a total of eight points and added to the cells to final concentrations of […], 0.0041, 0.0014 and 0.00046 μM in 100 μl cell culture medium (final concentration 0.2% DMSO). […] The cells were incubated at 37° C., 5% CO2 for three days. CellTiter-Glo Buffer (Promega Cell Viability Assay catalog #G7573) and substrate were equilibrated to room temperature, and enzyme/substrate Recombinant Firefly Luciferase/Beetle Luciferin was reconstituted. The cell plates were equilibrated to room temperature for 30 minutes, then lysed by addition of an equivalent volume of the Celltiter-Glo Reagent. The plate was mixed for 10 minutes on a plate shaker to lyse the cells. The plates were read on a Tecan M1000 using Luminescence protocol modified to read 0.1 s per well. The luminescence reading assesses the ATP content, which correlates directly with cell number such that the reading as a function of compound concentration was used to determine the IC50 value.

IC50 (FLT3-ITD)	IC50 [1]	Compound
0.0001 to 10 µM	0.0001 to 10 µM	O=C(c1cccc(-c2cnc3[nH]c(-c4ccccc4)cc3c2)n1)N1CCC(F)(F)C1 [Compound P-0093, (3,3-difluoropyrrolidin-1-yl)-[6-(2-phenyl-1H-pyrrolo[2,3-b]pyridin-5-yl)-2-pyridyl]methanone]
0.0001 to 10 µM	0.0001 to 10 µM	COC1CCN(C(=O)c2cccc(-c3cnc4[nH]c(-c5ccccc5)cc4c3)n2)C1 (stereo not drawn) [Compound P-0095, (3-methoxypyrrolidin-1-yl)-[6-(2-phenyl-1H-pyrrolo[2,3-b]pyridin-5-yl)-2-pyridyl]methanone]
0.0001 to 10 µM	0.0001 to 10 µM	CNC(=O)C1CCN(C(=O)c2cccc(-c3cnc4[nH]c(-c5ccccc5)cc4c3)n2)C1 (stereo not drawn) [Compound P-0096, N-methyl-1-[6-(2-phenyl-1H-pyrrolo[2,3-b]pyridin-5-yl)pyridine-2-carbonyl]pyrrolidine-3-carboxamide]
0.0001 to 10 µM	0.0001 to 10 µM	O=C(c1cccc(-c2cnc3[nH]c(-c4ccccc4)cc3c2)n1)N1CCC(n2ccnc2)C1 (stereo not drawn) [Compound P-0097, (3-imidazol-1-ylpyrrolidin-1-yl)-[6-(2-phenyl-1H-pyrrolo[2,3-b]pyridin-5-yl)-2-pyridyl]methanone]
0.0001 to 10 µM	0.0001 to 10 µM	N#CCCNC(=O)c1cccc(-c2cnc3[nH]c(-c4ccccc4)cc3c2)n1 [Compound P-0099, N-(2-cyanoethyl)-6-(2-phenyl-1H-pyrrolo[2,3-b]pyridin-5-yl)pyridine-2-carboxamide]
0.0001 to 10 µM	0.0001 to 10 µM	CC(C)(C#N)CNC(=O)c1cccc(-c2cnc3[nH]c(-c4ccccc4)cc3c2)n1 [Compound P-0100, N-(2-cyano-2-methyl-propyl)-6-(2-phenyl-1H-pyrrolo[2,3-b]pyridin-5-yl)pyridine-2-carboxamide]
0.0001 to 10 µM	0.0001 to 10 µM	N#CC1CCN(C(=O)c2cccc(-c3cnc4[nH]c(-c5ccccc5)cc4c3)n2)C1 (stereo not drawn) [Compound P-0105, 1-[6-(2-phenyl-1H-pyrrolo[2,3-b]pyridin-5-yl)pyridine-2-carbonyl]pyrrolidine-3-carbonitrile]
0.0001 to 10 µM	0.0001 to 10 µM	CN[C@@H]1CCN(C(=O)c2ccc(-c3cnc4[nH]c(-c5ccccc5)cc4c3)s2)C1 [Compound P-0106, [(3R)-3-(methylamino)pyrrolidin-1-yl]-[5-(2-phenyl-1H-pyrrolo[2,3-b]pyridin-5-yl)-2-thienyl]methanone]
0.0001 to 10 µM	0.0001 to 10 µM	CS(=O)(=O)N1CCC(NS(=O)(=O)c2cccc(-c3cnc4[nH]c(-c5ccccc5)cc4c3)n2)C1 (stereo not drawn) [Compound P-0107, N-(1-methylsulfonylpyrrolidin-3-yl)-6-(2-phenyl-1H-pyrrolo[2,3-b]pyridin-5-yl)pyridine-2-sulfonamide]
0.0001 to 10 µM	0.0001 to 10 µM	O=S(=O)(NC1CC1)c1cccc(-c2cnc3[nH]c(-c4ccccc4)cc3c2)n1 [Compound P-0109, N-cyclopropyl-6-(2-phenyl-1H-pyrrolo[2,3-b]pyridin-5-yl)pyridine-2-sulfonamide]
0.0001 to 10 µM	0.0001 to 10 µM	N#CC1(NC(=O)c2cccc(-c3cnc4[nH]c(-c5ccccc5)cc4c3)n2)CC1 [Compound P-0111, N-(1-cyanocyclopropyl)-6-(2-phenyl-1H-pyrrolo[2.3-b]pyridin-5-yl]pyridine-2-carboxamide]
0.0001 to 10 µM	0.0001 to 10 µM	O=C(c1cccc(-c2cnc3[nH]c(-c4cnn(CC(F)(F)F)c4)cc3c2)n1)N1CCC(F)(F)C1 [Compound P-0112, (3,3-difluoropyrrolidin-1-yl)-[6-[2-[1-(2,2,2-trifluoroethyl)pyrazol-4-yl]-1H-pyrrolo[2,3-b]pyridin-5-yl]-2-pyridyl]methanone]
0.0001 to 10 µM	0.0001 to 10 µM	CC(C)(C#N)CNC(=O)c1cccc(-c2cnc3[nH]c(-c4cnn(CC(F)(F)F)c4)cc3c2)n1 [Compound P-0113, N-(2-cyano-2-methyl-propyl)-6-[2-[1-(2,2,2-trifluoroethyl)pyrazol-4-yl]-1H-pyrrolo[2,3-b]pyridin-5-yl]pyridine-2-carboxamide]
0.0001 to 10 µM	0.0001 to 10 µM	N#CC1(NC(=O)c2cccc(-c3cnc4[nH]c(-c5ccccc5)cc4c3)n2)CCC1 [Compound P-0114, N-(1-cyanocyclobutyl)-6-(2-phenyl-1H-pyrrolo[2,3-b]pyridin-5-yl)pyridine-2-carboxamide]
0.0001 to 10 µM	0.0001 to 10 µM	N#CC1(F)CCN(C(=O)c2cccc(-c3cnc4[nH]c(-c5ccccc5)cc4c3)n2)C1 (stereo not drawn) [Compound P-0115, 3-fluoro-1-[6-(2-phenyl-1H-pyrrolo[2,3-b]pyridin-5-yl)pyridine-2-carbonyl]pyrrolidine-3-carbonitrile]
0.0001 to 10 µM	0.0001 to 10 µM	N#C[C@H]1CCN(C(=O)c2cccc(-c3cnc4[nH]c(-c5ccccc5)cc4c3)n2)C1 [Compound P-0117, (3S)-1-[6-(2-phenyl-1H-pyrrolo[2,3-b]pyridin-5-yl)pyridine-2-carbonyl]pyrrolidine-3-carbonitrile]
–	0.0001 to 10 µM	N#CC1CCN(S(=O)(=O)c2cccc(-c3cnc4[nH]c(-c5ccccc5)cc4c3)n2)C1 (stereo not drawn) [Compound P-0121, 1-[[6-(2-phenyl-1H-pyrrolo[2,3-b]pyridin-5-yl)-2-pyridyl]sulfonyl]pyrrolidine-3-carbonitrile]

Reference: patent US9938273B2 (Plexxikon Inc., priority 2015, dated 2018)
